Laboratory results from patent US12691106B2, “Treating refractive disorders by targeting peroxisome proliferator-activated receptor (PPAR) signaling pathway” (Centre for Eye and Vision Research Limited, priority 2023, dated 2026).

Tests used:
[1] = test system: normal growing eye; assay: Effect of rosiglitazone on normal chick eyes; format: in vivo; conditions: 5 mM, 10 μL intravitreal injection once a day for 3 days, two time points (FIG. 2)
[2] = test system: lens-induced myopia (LIM) chick eyes; assay: Lens-induced myopia (LIM) in chicks, axial length by ultrasonic A-scan; format: in vivo
Protocol: (§1) Chicks age day 7 are divided into 2 groups, lens-induced myopia (LIM) and age-matched control (CTL), randomly. Chick eyes are measured with ultrasonic A-scan and refractive index by retinoscope by a single-masked operator. A computer-controlled randomization is applied to assign either left or right eye for LIM treatment and contralateral eye served as untouch control. Baseline physiological data is acquired on day 7. Purified rosiglitazone (>99%) is purchased from manufacturer and dissolved in 100% Dimethyl sulfoxide (DMSO). A working rosiglitazone solution is prepared in the concentration of 5 mM in 2% DMSO, PBS solution prior use. The rosiglitazone (5 mM, 10 μL) is delivered by intravitreal injection in the LIM eye once a day for 3 consecutive days. A-10 D lens is applied soon after drug delivery. Chick eyes are measured again on day 10 to access the effect of rosiglitazone.
as §1, with “Further, the effect of rosiglitazone in lower dosages is also investigated. Briefly, chicks age” for “Chicks age”, “into 3” for “into 2”, “myopia with higher dosage (LIM with 1 mM, n=7), lens-induced myopia with lower dosage (LIM with 0.2 mM, n=7)” for “myopia (LIM)”, “control (CTL, n=2),” for “control (CTL),”, “as untouched” for “as untouch”, “rosiglitazone (1 mM, 10 μL or 0.2” for “rosiglitazone (5”
Referring to FIG. 1, the rosiglitazone treatment has shown a consistent effect on slowing myopia progression by an average of 65% using different batches of chicks when compared to independent age-matched chicks subjected to LIM treatment. The effect of myopia inhibition is reduced with dose with an exponential regression of y=1.14e^−0.57x, R^2=1) to 37% of inhibition in 1 mM drug and 21% of inhibition in 0.2 mM drug treatment group.

[3] = in vivo

**Q.** Which “effect on normal growing eye or inducing hyperopia in naked eye” value [1] does the source give for CN(CCOc1ccc(CC2SC(=O)NC2=O)cc1)c1ccccn1 (stereo not drawn) [rosiglitazone] here?
**A.** Its value is “no statistically significant effect”.

**Q.** What about the “inhibition of myopia (axial length)” value ([2]; 0.2 mM, 10 μL intravitreal injection once a day for 3 days, -10 D lens, measured day 10) of the same compound?
**A.** Its value is 21%.

**Q.** What about the “inhibition of myopia (axial length)” value ([2]; 1 mM, 10 μL intravitreal injection once a day for 3 days, -10 D lens, measured day 10) of the same compound?
**A.** Its value is 37%.

**Q.** What about the “slowing myopia progression (axial length), inhibition vs age-matched LIM chicks” value ([2]; 5 mM, 10 μL intravitreal injection once a day for 3 days, -10 D lens, measured day 10, average over different batches of chicks) of the same compound?
**A.** The value was 65%.

**Q.** And the “suppression of axial length growth” value ([2]; dose-dependent, summary statement, dose not given)?
**A.** Its value is 65%.

**Q.** And the “toxicity in animal models” value [3]?
**A.** The value was “no sign of toxicity”.
